Reference: patent US5338858A, “Triazolyl, tetrazolyl and azido-substituted fatty acid analog enzyme substrates” (Washington University, priority 1992, dated 1994)
Values after ≈ are worked out from the molar mass of the structure shown. Read-outs that look alike come from different tables or passages of the source.

Tests used:
HIV-1 [1] = assay: HIV inhibition assay of acutely infected CEM cells (MTT tetrazolium colorimetric, reduction of CPE); format: cell-based; conditions: for IC50 / inhibition at 1 µg/mL / inhibition at 10 µg/mL: Human immunodeficiency virus 1, CCRF-CEM, 168 h; for IC50: read-out: ID50 (inhibitory dose that inhibits 50% of the cytopathic effect); for inhibition at 1 µg/mL / inhibition at 10 µg/mL: read-out: Percent Reduction of CPE
Experimental: B. Representative compounds prepared in the foregoing illustrative specific examples were also tested in vitro for the assessment of anti-viral (HIV) activity as follows:
The HIV inhibition assay method of acutely infected cells is an automated tetrazolium based colorimetric assay adatped from that reported by Pauwles et al., J. Virol. Methods, 20, 309-321 (1988). Assays were performed in 96-well tissue culture plates. CEM cells were grown in RPMI-1640 medium (Gibco) supplemented with 10% fetal calf serum and were then treated with polybrene (2 μg/ml). An 80 μl volume of medium containing 1×10^4 cells was dispensed into each well of the tissue culture plate. To each well was added a 100 μl volume of test compound dissolved in tissue culture medium (or medium without test compound as a control) to achieve the desired final concentration and the cells were incubated at 37° C. for 1 hour. A frozen culture of HIV-1 was diluted in culture medium to a concentration of 5×10^4 TCID50 per ml (TCID50 =the dose of virus that infects 50% of cells in tissue culture), and a 20 μl volume of the virus sample (containing 1000 TCID50 of virus) was added to wells containing test compound and to wells containing only medium (infected control cells). […] Several wells received culture medium without virus (uninfected control cells). Likewise, the intrinsic toxicity of the test compound was determined by adding medium without virus to several wells containing test compound. In summary, the tissue culture plates contained the following tests (in triplicate):
In tests 2 and 4 the final concentrations of test compounds were 1, 10, 100 and 500 μg/ml. Azidothymidine (AZT) was tested as a positive drug control, and dodecanoic acid was tested as a negative fatty acid control. […] Under these conditions, DMSO had no significant effect on results as determined in controls.
Following the addition of virus, cells were incubated at 37° C. in a humidified, 5% CO2 atmosphere for 7 days. Additional aliquots of test compounds were added on days 2 and 5. On day 7 post-infection, the cells in each well were resuspended and a 100 μl sample of each cell suspension was removed for assay. A 20 μl volume of a 5 mg/ml solution of 3-(4,5-dimethylthiazol-2-yl)-2,5-diphenyltetrazolium bromide (MTT) was added to each 100 μl cell suspension, and the cells were incubated for 4 hours at 37° C. in a 5% CO2 environment. […] To each sample was added 100 μl of 10% sodium dodecylsulfate in 0.01 N HCl to lyse the cells and samples were incubated overnight. The absorbance of each sample was determined.at 590 nm using a Molecular Devices microplate reader. The % reduction of the virus induced cytopathic effect (CPE) by the test compounds was determined using the formula shown at the bottom of Table 2, hereinafter.
The results of the antiviral testing are set forth in Table 2, as percent reduction in cytopathic effect (CPE). The inhibitory dose that inhibits 50% of the cytopathic effect is shown as ID50 (μg/ml).
^a The percent reduction of viral CPE was calculated by the formula: […]

[2] = target: T1, yeast N-myristoyltransferase (Saccharomyces cerevisiae, UniProt P14743); assay: in vitro yeast N-myristoyltransferase (NMT) assay, substrate activity of fatty acyl CoA derivatives; format: biochemical; conditions: peptide GSAASARR-NH2, 30° C., 10 minutes; normalized to myristoyl peptide of parallel assay
T1 sequence (P14743 1-455): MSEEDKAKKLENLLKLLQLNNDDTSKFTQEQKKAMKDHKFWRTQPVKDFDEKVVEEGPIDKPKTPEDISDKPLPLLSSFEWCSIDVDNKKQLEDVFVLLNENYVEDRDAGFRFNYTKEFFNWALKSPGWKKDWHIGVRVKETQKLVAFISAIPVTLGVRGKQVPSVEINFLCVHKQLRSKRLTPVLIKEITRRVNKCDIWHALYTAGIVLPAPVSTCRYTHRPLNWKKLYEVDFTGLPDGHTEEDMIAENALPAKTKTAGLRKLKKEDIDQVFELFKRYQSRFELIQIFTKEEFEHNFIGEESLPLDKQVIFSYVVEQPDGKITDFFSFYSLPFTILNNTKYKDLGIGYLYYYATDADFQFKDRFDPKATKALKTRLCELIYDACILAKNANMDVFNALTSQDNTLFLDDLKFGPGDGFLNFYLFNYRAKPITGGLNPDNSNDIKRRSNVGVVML
Experimental: A. Representative compounds prepared in the foregoing illustrative specific examples were analyzed in a conventional in vitro yeast N-myristoyltransferase (NMT) assay as published by Heuckeroth et al., Proc. Nat'l Acad. Sci. USA 85, 8795-8799 (1988). In this assay, the test compounds were first converted to their respective fatty acyl CoA derivatives and then tested as substrates for the yeast NMT.
The assay conditions [essentially the same as those reported by Towler and Glaser, Proc. Natl. Acad. Sci. USA 83, 2812-2816 (1986)] were as follows:
1. Ligase reaction: 3.3 μmoles fatty acid, 5 mM ATP and 1 mM CoA were incubated with 15-150 milliunits of CoA ligase (1 unit/ml in 50 mM HEPES, pH 7.3) in a buffer composed of 10 mM TRIS-HCl, pH 7.4, 1 mM dithiothreitol, 5 mM MgCl2 and 0.1 mM EGTA, in a total volume of 50 μl for 25 minutes at 30° C.
2. NMT assay: 50 μl of the CoA ligase mixture was added to a 50 μl solution of 90 μM peptide (GSAASARR-NH2) in a buffer composed of 10 mM TRIS-HCl, pH 7.4, 1 mM dithiothreitol, 0.01 mM EGTA and aprotinin (10 μg/ml). 0.4 Unit of yeast N-myristoyltransferase was then added and the reaction mixture was incubated at 30° C. for 10 minutes. The peptide was radiolabeled with tritiated alanine in position 3. The reaction was quenched with 120 μl of TCA-MeOH and 75 μl was injected on a reverse phase C18 HPLC column and eluted with a linear gradient of 0-100% acetonitrile over 100 minutes (both water and acetonitrile containing 0.1% trifluoroacetic acid). Radioactivity was assessed with an on line radiomatic detector corrected for quenching.
The amount of radioactivity was determined for each azido-substituted fatty acyl peptide product and then was normalized to the amount of myristoyl peptide produced in an assay run in parallel.

HIV-1 [3] = assay: HIV inhibition assay of acutely infected CEM cells (MTT tetrazolium colorimetric, reduction of CPE); format: cell-based; conditions: Human immunodeficiency virus 1, CCRF-CEM, 168 h, read-out: Percent Reduction of CPE
[4] = concentration 1 (μg/ml), CEM cells, HIV-1, 7 days
[5] = concentration 10 (μg/ml), CEM cells, HIV-1, 7 days

**Q.** With “12-(Tetrazolyl)dodecanoic acid [Compound 46]” as the compound, how does the “ID50 (inhibitory dose that inhibits 50% of the cytopathic effect)” value (HIV-1 [1]; CEM cells, HIV-1, 7 days) read?
**A.** 5.9 µg/mL

**Q.** What about the “Percent Reduction of CPE” value (HIV-1 [1]; [4]) of the same compound?
**A.** 12%

**Q.** What about the “Percent Reduction of CPE” value (HIV-1 [1]; [5]) of the same compound?
**A.** 65%

**Q.** And the “Activity (% of Myristate)” value [2]?
**A.** 46 % of Myristate

**Q.** Which results are given for `COCCCCCCCCCCCC(=O)O` [13-Oxamyristate, reference compound]?
**A.** IC50 (HIV-1 [1]; CEM cells, HIV-1, 7 days): 0.3 µg/mL (≈ 1.3 µM); inhibition at 1 µg/mL (HIV-1 [1]; [4]): 66.4%; inhibition at 10 µg/mL (HIV-1 [1]; [5]): 43.5%

**Q.** What does the source list for `Cc1cn([C@H]2C[C@H](N=[N+]=[N-])[C@@H](CO)O2)c(=O)[nH]c1=O` [AZT, Azidothymidine]?
**A.** inhibition at 0.5 µg/mL (HIV-1 [3]): 87.8%; inhibition at 0.001 µg/mL (HIV-1 [3]; 0.001 μg/ml, CEM cells, HIV-1, 7 days): 58.2%; inhibition at 0.01 µg/mL (HIV-1 [3]; 0.01 μg/ml, CEM cells, HIV-1, 7 days): 84.8%; inhibition at 0.1 µg/mL (HIV-1 [3]; 0.1 μg/ml, CEM cells, HIV-1, 7 days): 101%; IC50 (HIV-1 [1]; CEM cells, HIV-1, 7 days): < 0.001 µg/mL

**Q.** Which IC50 (HIV-1 [1]; CEM cells, HIV-1, 7 days) does the source give for `[N-]=[N+]=NCCCCCCCCCCCC(=O)O` [Compound 1, 12-Azidododecanoic acid] here?
**A.** 0.3 µg/mL (≈ 1.24 µM)

**Q.** And the inhibition at 1 µg/mL (HIV-1 [1]; [4])?
**A.** 81.7%

**Q.** What about the inhibition at 10 µg/mL (HIV-1 [1]; [5]) of the same compound?
**A.** 38.2%

**Q.** And the “Activity (% of Myristate)” value [2]?
**A.** 142 % of Myristate

**Q.** What does the source list for `[N-]=[N+]=NCCCCCCCCCCC(=O)O` [Compound 2, 11-Azidoundecanoic acid]?
**A.** inhibition at 1 µg/mL (HIV-1 [1]; [4]): 16.3%; inhibition at 10 µg/mL (HIV-1 [1]; [5]): 34.6%; Activity (% of Myristate) [2]: 100 % of Myristate

**Q.** `[N-]=[N+]=NCCCCCCCCC(=O)O` [Compound 3, 9-Azidononanoic acid] was tested. Which “Activity (% of Myristate)” value [2] did it give?
**A.** 55 % of Myristate

**Q.** For `[N-]=[N+]=NCCCCCCSCCCCC(=O)O` [Compound 13, 5-(1-Azido-hexane-6-thia)pentanoic acid], which “ID50 (inhibitory dose that inhibits 50% of the cytopathic effect)” value (HIV-1 [1]; CEM cells, HIV-1, 7 days) is on record?
**A.** Inactive

**Q.** What about the inhibition at 1 µg/mL (HIV-1 [1]; [4]) of the same compound?
**A.** 0%

**Q.** And the inhibition at 10 µg/mL (HIV-1 [1]; [5])?
**A.** 14%

**Q.** What about the “Activity (% of Myristate)” value [2] of the same compound?
**A.** 103 % of Myristate

**Q.** For `[N-]=[N+]=NCCCCCCCCCSCC(=O)O` [Compound 19, 2-(1-Azido-nonane-9-thia)acetic acid], which IC50 (HIV-1 [1]; CEM cells, HIV-1, 7 days) is on record?
**A.** 9.2 µg/mL (≈ 35.5 µM)

**Q.** And the inhibition at 1 µg/mL (HIV-1 [1]; [4])?
**A.** 1%

**Q.** And the inhibition at 10 µg/mL (HIV-1 [1]; [5])?
**A.** 54%

**Q.** What about the “Activity (% of Myristate)” value [2] of the same compound?
**A.** 17 % of Myristate

**Q.** What does the source list for `[N-]=[N+]=NCCCCCCCCSCCC(=O)O` [Compound 23, 4-(1-Azido-octane-6-thia)propionic acid]?
**A.** ID50 (inhibitory dose that inhibits 50% of the cytopathic effect) (HIV-1 [1]; CEM cells, HIV-1, 7 days): Inactive; inhibition at 1 µg/mL (HIV-1 [1]): 0%; inhibition at 10 µg/mL (HIV-1 [1]): 0%; Activity (% of Myristate) [2]: 373 % of Myristate

**Q.** With `[N-]=[N+]=NCCOCCCCCCCCC(=O)O` [Compound 40, 9-(1-Azido-ethane-2-oxa)nonanoic acid] as the compound, how does the “Activity (% of Myristate)” value [2] read?
**A.** 280 % of Myristate

**Q.** Which results are given for `[N-]=[N+]=NCCCOCCCCCCCC(=O)O` [Compound 41, 8-(1-Azido-propane-3-oxa)octanoic acid]?
**A.** IC50 (HIV-1 [1]; CEM cells, HIV-1, 7 days): 5 µg/mL (≈ 20.6 µM); inhibition at 1 µg/mL (HIV-1 [1]; [4]): 14%; inhibition at 10 µg/mL (HIV-1 [1]; [5]): 66%; Activity (% of Myristate) [2]: 421 % of Myristate

**Q.** How did the “ID50 (inhibitory dose that inhibits 50% of the cytopathic effect)” value (HIV-1 [1]; CEM cells, HIV-1, 7 days) turn out when `[N-]=[N+]=NCCCCCCOCCCCC(=O)O` [Compound 42, 5-(1-Azido-hexane-6-oxa)pentanoic acid] was run?
**A.** Inactive

**Q.** What about the inhibition at 1 µg/mL (HIV-1 [1]; [4]) of the same compound?
**A.** 4%

**Q.** What about the inhibition at 10 µg/mL (HIV-1 [1]; [5]) of the same compound?
**A.** 20%

**Q.** What about the “Activity (% of Myristate)” value [2] of the same compound?
**A.** 622 % of Myristate

**Q.** With `[N-]=[N+]=NCCCCCCCCCOCC(=O)O` [Compound 43, 2-(1-Azido-nonane-9-oxa)acetic acid] as the compound, how does the “ID50 (inhibitory dose that inhibits 50% of the cytopathic effect)” value (HIV-1 [1]; CEM cells, HIV-1, 7 days) read?
**A.** Inactive

**Q.** And the “Activity (% of Myristate)” value [2]?
**A.** 11 % of Myristate

**Q.** Which IC50 (HIV-1 [1]; CEM cells, HIV-1, 7 days) does the source give for `O=C(O)CCCCCCCCCCCn1cncn1` [Compound 48] here?
**A.** 4.2 µg/mL (≈ 15.7 µM)

**Q.** What about the inhibition at 1 µg/mL (HIV-1 [1]; [4]) of the same compound?
**A.** 24%

**Q.** And the inhibition at 10 µg/mL (HIV-1 [1]; [5])?
**A.** 66%

**Q.** What about the “Activity (% of Myristate)” value [2] of the same compound?
**A.** 23 % of Myristate

**Q.** What does the source list for `O=C(O)CCCCCCCCCCCn1nccn1` [Compound 50, 12-(N-2-[1,2,3]-Triazolyl)dodecanoic acid]?
**A.** inhibition at 1 µg/mL (HIV-1 [1]; [4]): 19.5%; inhibition at 10 µg/mL (HIV-1 [1]; [5]): 30.8%; Activity (% of Myristate) [2]: 99 % of Myristate

**Q.** What does the source list for `CCCCCCCCCC(=O)O` [Decanoic acid, reference compound]?
**A.** inhibition at 1 µg/mL (HIV-1 [1]): 7.7%; inhibition at 10 µg/mL (HIV-1 [1]): 11.3%
